Test results as given in patent US20220062258A1, “Heterocyclic derivatives” (Merck Patent GmbH, priority 2019, published 2022).

Tests used:
Assay type in all cases: cell-based
MetAP-2 [1] = molecular target: T1, MetAP-2 (Homo sapiens, UniProt P50579); assay: Degradation of MetAP-2 in HCT116 cells (Western blot, MetAp2/GAPDH signal); design: endogenous in cells; host or cells: HCT116; conditions: 0.1 μM, 24 hrs, HTC116 cells; <1 means degradation
Protocol: See scans below. […] The initial MetAP-2 degradation results were obtained after 24 h incubation of the compounds in three different concentrations (0.1; 1; 10 μM), cell lysis, SDS-PAGE separation, blotting and antibody aided detection.
Comparison of MetAP2 protein levels in HTC116 cells after compound treatments at different concentrations and time points. As control, DMSO was used and its values set as “1”. MetAp2 values <1 means degradation.
2. Exemplary Testing of the Compound
HCT116 cells were sown in 6-well plates. Pipette 1 mL fresh medium to every well and incubate for at least 1 h (37° C., 5% CO2, 95% rH).
Harvest and count cells in Vi-Cell. Equinr. 70198475 Adjust cell concentration to 0.35e^6 cells/mL and add 1 mL of cell suspension (total 0,35e^6 cells/well).
Incubate cells for 24 hours (37° C., 5% CO2, 95% rH)
HCT116: 24 h: ˜50% confluent before treatment
Compounds will be thawed the first time, stock: 10 mM; final concentration: 10 μM & 1 μM & 0.1 μM
Treatment with DMSO based solution with Digital Dispenser: HCT116 platte 2A1.jpg_meta.xml • create new dispensing protocol for compound • apply name of test compound and its stock concentration (in mM) for testing • 3×1:10 dilution series • final 0.3% DMSO, DMSO normalization for every well • shaking after compound/DMSO addition
Incubate cells for further 24 hours (37° C., 5% C02, 95% rH)
HCT116: 70-80% confluent before lysis • after incubation cells were lysed with RIPA lysis buffer including Halt™
all steps performed on ice or at 4° C. • aspirate supernatant from cells • wash cells twice with 2.0 mL ice cold PBS buffer • aspirate supernatant from cells after each washing step • lyse cells with 100 μL Ripa lysis buffer per well • scrape cells with cell scraper and transfer lysates to Eppendorf Cups • incubate for 15 min on ice • centrifuge […] at 13000×g and 4° C. • transfer supernatants to fresh Eppendorf cups • removal of 20 μL lysate for BCA assay • aliquot and freeze at −20° C.
Determination of protein concentration of lysates with BCA Protein Assay Kit. BSA supplied with the kit is 2 mg/mL.
Dilute the standard (Stock BSA concentration=2 mg/mL) in a 96 well plate: Samples were run 1:4. Dilute in lysing buffer, lysing buffer alone was run to determine the background from detergents in the assay.
BCA reagent: Dilute Reagent A and Reagent B in a 1:50 ratio. To 9.8 mL A add 200 μL B.
Assay Procedure: Pipette 5 μL/well of standard or samples to 96 wells (see plate layout). Samples were run in duplicate. Blanks=5 μL/well PBS or 5 μL/well lysing buffer. Add 100 μL/well of the prepared BCA reagent. Tap plate to mix or shake for 1-2 min on the Eppendorf mixer. Incubate at 37° C. for 30 min.
Read the OD at 562 nm. Plate was read on EnVision 2104 Multilabel Reader (Perkin Elmer, Equipment Number 70160330) last verification of instrument 17.08.2017 (once a year) (A25/531). AEH181012_BCA.csv
In EXCEL the duplicates were averaged and the average background PBS was subtracted for the standard curve.
A trend line was created, the intercept (b) was set at 0. The R^2 should be >0.950 for acceptable results. The lysate buffer blank was subtracted from the test values and the averaged, background-corrected O.D. values were used with the equation to calculate mg/ml and then were corrected for the dilution factor for the final mg/mL value. Only results from OD values within the range of the standard curve are acceptable. Values outside of the standard curve range are ignored. BCA AEH00350 Berechnung.xlsx
6. Sample Calculation and Preparation • thaw lysates of AEH00350 on ice • calculate sample volume for Western Blot loading 10 μg total protein/13 μL per slot: • dilute samples with lysis buffer and 10× reducing agent & 4×LDS buffer to 10 μg. • heat them at 70° C. for 10 min and 1000 rmp
7. […]

MetAP-2 [2] = molecular target: T1, MetAP-2; assay: as above; design: endogenous in cells; host or cells: HCT116; conditions: 0.1 μM, 6 hrs, HTC116 cells; <1 means degradation
[3] = test system: HUVEC primary endothelial cells; assay: HUVEC proliferation assay (CyQUANT Direct); conditions: Homo sapiens, 72 h, 3 days incubation
Protocol: HUVEC Proliferation Assay
Proliferation of HUVEC primary endothelial cells was used as cell-based mechanistical assay.^25 Applying the CyQUANT@ Direct Cell Proliferation Assay (Invitrogen C35011) which is based on a cell-permeant fluorescent DNA-binding dye, DNA content is used as a direct measure for cell number. Pooled HUVEC cells (Promocell C-12203) are cultivated in the medium supplied by Promocell (Cat No C-22020) for maximum 4 passages. For the assay 500 cells/well are seeded into black 384-well culture plates with clear bottom in 70 μl culture medium and incubated for 6 hours at 37° C., 5% CO2. 10 μl prediluted test compounds are added and cells incubated for 3 days at 37° C., 5% CO2 before measurement of DNA content. CyQUANT detection reagent is prepared according to the manufacturers protocol, 20 μl/well added and incubated at 37° C., 5% CO2 for at least 1 h before measurement of fluorescence at Envision multimode reader (Perkin-Elmer, Waltham) with excitation 480 nm and emission 535 nm (bottom read mode). The assay is performed as dose response with 10 compound dilutions. Inhibitory values (IC50) were determined using the program ASSAY ANALYZER® from GeneData (Basel, Switzerland).

T1 sequence (P50579 whole entry): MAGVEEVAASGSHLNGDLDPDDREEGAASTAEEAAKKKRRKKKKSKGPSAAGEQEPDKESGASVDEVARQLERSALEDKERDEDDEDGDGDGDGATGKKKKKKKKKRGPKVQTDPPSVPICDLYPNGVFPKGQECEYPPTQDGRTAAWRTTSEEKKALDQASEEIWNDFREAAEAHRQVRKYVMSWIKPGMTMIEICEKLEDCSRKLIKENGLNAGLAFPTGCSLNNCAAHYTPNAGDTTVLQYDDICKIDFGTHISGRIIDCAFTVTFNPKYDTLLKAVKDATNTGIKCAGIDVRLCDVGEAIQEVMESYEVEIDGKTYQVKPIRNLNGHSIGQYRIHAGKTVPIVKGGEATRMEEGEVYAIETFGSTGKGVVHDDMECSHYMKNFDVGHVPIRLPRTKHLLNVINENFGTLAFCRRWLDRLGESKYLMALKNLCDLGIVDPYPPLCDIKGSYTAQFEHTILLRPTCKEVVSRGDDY

Signal MetAp2/GAPDH normalized to untreated (DMSO) (MetAP-2 [1])	Signal MetAp2/GAPDH normalized to untreated (DMSO) (MetAP-2 [2])	SMILES	IC50 [3]
1.2	1.3	O=C1CCC(N2C(=O)c3cccc(NCCOCCOCCOCCOCCOCCNC(=O)c4cc5cc(N6CC(O)C(O)(C(=O)NCc7cc(F)cc(F)c7)C6=O)ccc5[nH]4)c3C2=O)C(=O)N1 (stereo not drawn) [Compound A21, 5-[3-[(3,5-difluorophenyl)methylcarbamoyl]-3,4-dihydroxy-2-oxo-pyrrolidin-1-yl]-N-[2-[2-[2-[2-[2-[2-[[2-(2,6-dioxo-3-piperidyl)-1,3-dioxo-isoindolin-4-yl]amino]ethoxy]ethoxy]ethoxy]ethoxy]ethoxy]ethyl]-1H-indole-2-carboxamide]	–
–	–	O=C1CCC(N2C(=O)c3ccc(NCCOCCOCCN4CCC5(CC4)CCN(C(=O)c4cc6cc(N7CC[C@](O)(C(=O)NCc8cc(F)cc(F)c8)C7=O)ccc6[nH]4)CC5)cc3C2=O)C(=O)N1 (stereo partly drawn) [Compound A49, (3S)—N-[(3,5-difluorophenyl)methyl]-1-[2-(9-{2-[2-(2-{[2-(2,6-dioxopiperidin-3-yl)-1,3-dioxo-2,3-dihydro-1H-isoindol-5-yl]amino}ethoxy)ethoxy]ethyl}-3,9-diazaspiro[5.5]undecane-3-carbonyl)-1H-indol-5-yl]-3-hydroxy-2-oxopyrrolidine-3-carboxamide]	51 nM
–	–	O=C1CCC(N2C(=O)c3ccc(NC(=O)CCCCCCCCCCCCCNC(=O)c4cc5cc(N6CC[C@](O)(C(=O)NCc7cc(F)cc(F)c7)C6=O)ccc5[nH]4)cc3C2=O)C(=O)N1 (stereo partly drawn) [Compound A50, (3S)—N-[(3,5-difluorophenyl)methyl]-1-{2-[(13-{[2-(2,6-dioxopiperidin-3-yl)-1,3-dioxo-2,3-dihydro-1H-isoindol-5-yl]carbamoyl}tridecyl)carbamoyl]-1H-indol-5-yl}-3-hydroxy-2-oxopyrrolidine-3-carboxamide]	180 nM
–	–	O=C1CCC(N2C(=O)c3ccc(NCCCCOCCCCOCCCCNC(=O)c4cc5cc(N6CC[C@](O)(C(=O)NCc7cc(F)cc(F)c7)C6=O)ccc5[nH]4)cc3C2=O)C(=O)N1 (stereo partly drawn) [Compound A51, 5-[(3S)-3-{[(3,5-difluorophenyl)methyl]carbamoyl}-3-hydroxy-2-oxopyrrolidin-1-yl]-N-{4-[4-(4-{[2-(2,6-dioxopiperidin-3-yl)-1,3-dioxo-2,3-dihydro-1H-isoindol-5-yl]amino}butoxy)butoxy]butyl}-1H-indole-2-carboxamide]	400 nM
–	–	O=C1CCC(N2C(=O)c3ccc(OCCOCCOCCOCCOCCNC(=O)c4cc5cc(N6CC[C@](O)(C(=O)NCc7cc(F)cc(F)c7)C6=O)ccc5[nH]4)cc3C2=O)C(=O)N1 (stereo partly drawn) [Compound A52, 5-[(3S)-3-{[(3,5-difluorophenyl)methyl]carbamoyl}-3-hydroxy-2-oxopyrrolidin-1-yl]-N-(14-{[2-(2,6-dioxopiperidin-3-yl)-1,3-dioxo-2,3-dihydro-1H-isoindol-5-yl]oxy}-3,6,9,12-tetraoxatetradecan-1-yl)-1H-indole-2-carboxamide]	4900 nM
–	–	O=C1CCC(N2C(=O)c3ccc(NC(=O)COCCOCCOCCOCCOCCNC(=O)c4cc5cc(N6CC[C@](O)(C(=O)NCc7cc(F)cc(F)c7)C6=O)ccc5[nH]4)cc3C2=O)C(=O)N1 (stereo partly drawn) [Compound A55, (3S)—N-[(3,5-difluorophenyl)methyl]-1-{2-[(1-{[2-(2,6-dioxopiperidin-3-yl)-1,3-dioxo-2,3-dihydro-1H-isoindol-5-yl]carbamoyl}-2,5,8,11,14-pentaoxahexadecan-16-yl)carbamoyl]-1H-indol-5-yl}-3-hydroxy-2-oxopyrrolidine-3-carboxamide]	> 30000 nM
–	–	O=C1CCC(N2C(=O)c3cccc(NCCOCCOCCOCCOCCN4CCN(C(=O)c5cc6cc(N7CC[C@](O)(C(=O)NCc8cc(F)cc(F)c8)C7=O)ccc6[nH]5)CC4)c3C2=O)C(=O)N1 (stereo partly drawn) [Compound A56, (3S)—N-[(3,5-difluorophenyl)methyl]-1-{2-[4-(14-{[2-(2,6-dioxopiperidin-3-yl)-1,3-dioxo-2,3-dihydro-1H-isoindol-4-yl]amino}-3,6,9,12-tetraoxatetradecan-1-yl)piperazine-1-carbonyl]-1H-indol-5-yl}-3-hydroxy-2-oxopyrrolidine-3-carboxamide]	120 nM
–	–	O=C1CCC(N2C(=O)c3cccc(NC(=O)CCCCCCCCCCCCCCCCNC(=O)c4cc5cc(N6CC[C@](O)(C(=O)NCc7cc(F)cc(F)c7)C6=O)ccc5[nH]4)c3C2=O)C(=O)N1 (stereo partly drawn) [Compound A57, (3S)—N-[(3,5-difluorophenyl)methyl]-1-{2-[(16-{[2-(2,6-dioxopiperidin-3-yl)-1,3-dioxo-2,3-dihydro-1H-isoindol-4-yl]carbamoyl}hexadecyl)carbamoyl]-1H-indol-5-yl}-3-hydroxy-2-oxopyrrolidine-3-carboxamide]	> 30000 nM
